Test results as given in patent publication US20030125314A1, “Photodynamic therapy for the treatment of epilepsy” (priority 2001, published 2003).

Assays:
[1] = cited from earlier work
[2] = test system: rat model of epilepsy (kindled rats); test: Incline Plane test (motor/grip strength) after photodynamic therapy; assay type: in vivo, Sprague-Dawley rats; conditions: ALA 400 mg/Kg IV, 635 nm laser 10 min, vs control groups, F(3,27)=1.616, p=0.209 between groups
Experimental: To assess behavioral outcome, thirty-one Sprague-Dawley rats were placed into four groups to test the effects of PDT treatment parameters. All animals underwent a behavioral battery that included the Morris Water Maze (MWM), selected to assess one aspect of hippocampal function, spatial learning and memory and incline plane (IP) to screen for motor injury. […] ALA (400 mg/Kg) was injected intravenously through a femoral vein catheter. […] Four hours post drug administration animals were anesthetized and stereotactically positioned. […] A 4 mm diameter was created and a laser was positioned 2.3 mm from the surface of the brain. […] Laser light was focused on the brain for 10 minutes at a wavelength of 635 nanometers. […] This test was selected because it can evaluate bilateral grip strength and we used this test to screen for any motor and/or coordination deficiencies resulting for the surgical craniectomy or laser effect on the cortex. […] Any sign of hemiparesis may indicate undesired cortical injury. […] This test involves the initial placement of the animal at a 65 degree angle to the horizontal. The flat plane can move up or down at intervals of 5 degrees, until they are at an angle where they can hold their position without sliding down. Then the opposite side is tested. Animals are evaluated on this task on days 1-4 before going on to the MWM.

kindled rats [3] = test: Beam walk test to assess paresis after photodynamic therapy; assay type: in vivo, rat; conditions: animals completing the photodynamic therapy protocol, compared to historic controls
Description: (§1) In our study, animals completing the photodynamic therapy protocol recovered from surgery and underwent behavioral testing using the beam walk test to assess paresis and the Morris Water Maze to assess hippocampus related learning.

hippocampal cells = test: PpIX fluorescence in brain sections after ALA infusion (fluorescence microscopy, Texas Red filter); conditions: 400 mg/Kg IV, 4 hours
kindled rats [4] = test: Morris Water Maze after photodynamic therapy, compared to historic controls; assay type: in vivo, rat; conditions: animals completing the photodynamic therapy protocol
Description: as §1

[5] = test system: rat model of epilepsy (kindled rats); test: Morris Water Maze (spatial learning and memory) after photodynamic therapy; assay type: in vivo, Sprague-Dawley rats; conditions: ALA 400 mg/Kg IV, 635 nm laser 10 min at 4 h, vs control animals, F(3,27)=0.920, p=0.445 between groups
Description: To assess behavioral outcome, thirty-one Sprague-Dawley rats were placed into four groups to test the effects of PDT treatment parameters. All animals underwent a behavioral battery that included the Morris Water Maze (MWM), selected to assess one aspect of hippocampal function, spatial learning and memory and incline plane (IP) to screen for motor injury. […] Male Sprague-Dawley rats (275 g) had bipolar stimulating electrodes stereotactically implanted under surgical anesthesia at 7.4 mm posterior to Bregma and 4.1 lateral to the midline through a 1.5 mm craniotomy. […] ALA (400 mg/Kg) was injected intravenously through a femoral vein catheter. […] Four hours post drug administration animals were anesthetized and stereotactically positioned. […] A 4 mm diameter was created and a laser was positioned 2.3 mm from the surface of the brain. […] Laser light was focused on the brain for 10 minutes at a wavelength of 635 nanometers. […] All animals participated in the MWM test which was conducted over 5 consecutive days.

kindled rats [6] = test: Resumed daily kindling stimulations after PDT (seizure activity, after discharges); assay type: in vivo, rat; conditions: PDT animals, over 1 week of daily stimulation
Description: We have assessed this therapy in kindled rats. Kindling is a well characterized and reproducible model for reflecting epileptogensis, the process by which a normal brain region becomes an epileptic focus. Animals are kindled with an electrode implanted into the perforant path region of the brain. Each day the animals receive a small stimulus. Initially no seizure activity is induced, but over two or three weeks, this same low level of stimulation generates increasing seizure activity until an animal has 3 consecutive tonic clonic (Stage 5) seizures. Once fully kindled, animals retain this seizure sensitivity even if not stimulated for days or months.
as §1

[7] = test system: CA1 and CA3 regions of the kindled hippocampus; test: Fluorojade histofluorescence analysis of cell death after laser-induced PDT; assay type: in vivo, rat; conditions: 24 hours after laser-induced PDT of ALA-treated animals
Experimental: The Wilson laboratory at the University of Toronto has previously measured apoptotic cell death at 24 hours following PDT and our Fluorojade results are consistent with their findings. Lilge et al. (2000) have shown that necrotic and apoptotic cell death are a function of the laser exposure (a variable easy to control) and not extent of ALA uptake or conversion.
Fluorojade (Histo-Chem, Inc) staining will be carried out on 20 micron cryostat-prepared brain sections. Tissue sections are mounted onto gelatinized slides and allowed to dry at room temp. Using a staining rack, slides are immersed in 100% EtOH (3 min), in 70% EtOH (1 min), in distilled water (1 min), and then in 0.06% solution of potassium permanganate (15 min, shaking gently). Slides are rinsed in distilled water, and then immersed in a 0.001% Fluoro-Jade solution (away from light, 30 min, shaking gently) following steps carried out in dim light). Still in dim light, slides are then rinsed, dried, dehydrated (xylene), and coverslipped. Stained slides, viewed with a fluorescence microscope (FITC filter), reveal apoptotic cells as brightly green.

incline plane assessment (motor performance) [2]: no difference between groups
hemiparesis (beam walk test) (kindled rats [3]): no hemiparesis
learning impairment (Morris Water Maze) (kindled rats [4]): no hemiparesis or learning impairment
performance on the MWM task [5]: no significant differences
SMILES: NCC(=O)CCC(=O)O [ALA, 5-aminolevulinic acid]
blood-brain barrier passage ([1]; evidenced by increased PpIX concentrations in normal brain tissue after ALA administration (Hebeda, K., 1995)): can cross the blood-brain barrier
time point of maximal uptake of ALA into brain tissue ([1]; following the ALA injection (Lilge, L., et al. 2000)): four
ALA uptake in hippocampal cells (PpIX fluorescence) (hippocampal cells; fully kindled rats with elicited seizures vs fully kindled rats without elicited seizures and implanted controls, preliminary data): greater ALA uptake in hippocampal cells
PpIX fluorescence (hippocampal cells; kindled rats without elicited seizures vs implanted controls, initial results): more fluorescence than implanted controls
seizure activity / after discharges on resumed kindling stimulation (kindled rats [6]): no seizure activity or significant after discharges
cell death (Fluorojade histofluorescence) [7]: selective cell death in the CA1 and CA3 regions of the kindled hippocampus
